{
  "source": "ChEMBL document CHEMBL5126502",
  "about": "“Promising applications of steroid сonjugates for cancer research and treatment” (Eur J Med Chem, 2021)",
  "assay": "Cytotoxicity against human MCF7 cells incubated for 48 hrs by MTT assay",
  "format": "toxicity, cell-based",
  "data": [
    {"compound": "C[C@@H]1CC[C@@]2(OC1)O[C@H]1C[C@H]3[C@@H]4CC[C@H]5C[C@@H](OC(=O)[C@@H](N)CO)CC[C@]5(C)[C@H]4CC[C@]3(C)[C@H]1[C@@H]2C", "values": [
      {"measurement": "IC50 at 48 h", "value": 1.5, "unit": "µM"}
    ]}
  ]
}
